The values below come from patent publication US12122756B2, “Biflavone compound against I-type herpes simplex virus, and preparation method therefor and use thereof” (priority 2022, dated 2024).

Test [1] relates to HSV-I. As to the kind of experiment: Plaque-reduction method: plaque formation in Vero cells induced by HSV-I. Type of test: cell-based, Herpes simplex virus type I. The procedure:
(2) Measurement of the inhibitory effect of drugs on the formation of plaque in Vero cells induced by HSV-I using plaque-reduction method: Vero cells were seeded into a 24-well plate and grew into a monolayer the next day. Then, the 100 PFU/0.2 ml virus solution was added to infect the cells, and a cell control group was included. After incubation with the virus, the agarose cover solution for maintenance of cells, containing different concentrations of the test drug, was replaced, followed by cultivation for additional 72 hours. The cell culture was fixed with 4% paraformaldehyde, stained with 1% crystal violet solution, washed, and dried. The plaque was counted to calculate plaque-forming inhibition ratio of the drug. [formula] 5. Study on the Action Mode of the Test Drug
(Plaques are areas of infected cells; plaque reduction assays count them against a control.)

Test [2] relates to HSV-I. As to the kind of experiment: Action mode: inhibitory effect on HSV-I replication (CPE, CCK-8). Type of test: cell-based, Herpes simplex virus type I. As to the method:
(2) The inhibitory effect of drugs on HSV-I replication: Vero cells were seeded in a 96-well plate and grew into a monolayer, before adding HSV-I virus solution at 100 μl/well, followed by incubation for 1 hour. Then, the cell maintenance solution containing different concentrations of sample was replaced, and the cells were further cultured. After 72 hours, the effect on the replication of virus was determined using the CCK-8 method.

Each structure is given as a SMILES string.

As to `COc1c(O)c(Cc2c(O)c(OC)c(O)c3c(=O)c(-c4ccc(O)c(S(=O)(=O)[O-])c4)coc23)c2occ(-c3ccc(O)c(S(=O)(=O)[O-])c3)c(=O)c2c1O.[Na+].[Na+]` [Compound 2, 8,8″-methylene-di-(sodiumtectorigenin-5′-sulphonate)], the “inhibitory effect on plaque formation induced by HSV-I (in words)” value with HSV-I [1] is listed as “significant inhibitory effect”. The “Effect on viral replication: OD value” in the test on HSV-I [2] (5.97 μg/ml, n = 6) was determined as 0.33 ± 0.05; in the test on HSV-I [2] (11.94 μg/ml, n = 6), 0.36 ± 0.07; in the test on HSV-I [2] (23.88 μg/ml, n = 6), 0.62 ± 0.05; in the test with HSV-I [2] (47.45 μg/ml, n = 6), 0.80 ± 0.05; with HSV-I [2] (95.50 μg/ml, n = 6) it was 0.97 ± 0.09; in the test on HSV-I [2] (191.00 μg/ml, n = 6) it was 0.98 ± 0.12. Further, the “Effect on viral replication: OD value” in the test on HSV-I [2] (382.00 μg/ml, n = 6) is given as 0.99 ± 0.02. Also, the “effect on viral replication (in words)” value with HSV-I [2] (CPE method) is reported as “significant effect”. In addition, the inhibition (usually the change of the read-out against control, counted positive when it falls) at 5.97 µg/mL in the test with HSV-I [2] (Human alphaherpesvirus 1, 5.97 μg/ml, n = 6, read-out: Effect on viral replication: Inhibition rate (%)) worked out at 13.1%. Besides, the inhibition at 11.94 µg/mL in the test with HSV-I [2] (Human alphaherpesvirus 1, 11.94 μg/ml, n = 6, read-out: Effect on viral replication: Inhibition rate (%)) amounted to 17.6%. The inhibition at 23.88 µg/mL with HSV-I [2] (Human alphaherpesvirus 1, 23.88 μg/ml, n = 6, read-out: Effect on viral replication: Inhibition rate (%)) was found to be 50.5%. The inhibition at 47.45 µg/mL in the test with HSV-I [2] (Human alphaherpesvirus 1, 47.45 μg/ml, n = 6, read-out: Effect on viral replication: Inhibition rate (%)) is 73.8%. In the test on HSV-I [2] (Human alphaherpesvirus 1, 95.50 μg/ml, n = 6, read-out: Effect on viral replication: Inhibition rate (%)), the inhibition at 95.5 µg/mL is 96.2%. Further, in the test with HSV-I [2] (Human alphaherpesvirus 1, 191.00 μg/ml, n = 6, read-out: Effect on viral replication: Inhibition rate (%)), the inhibition at 191 µg/mL was determined as 98%. For the same molecule, in the test with HSV-I [2] (Human alphaherpesvirus 1, 382.00 μg/ml, n = 6, read-out: Effect on viral replication: Inhibition rate (%)), the inhibition at 382 µg/mL turned out to be 98.8%.
